“And” between values parts separate entries of the source, which are not always exact repeats. Equal values may be shown once.
Key:
[1] = target: N-type calcium channel (NTCC) (Homo sapiens, UniProt Q00975); test: FLIPR calcium mobilization assay for N-type calcium channel (differentiated IMR32 cells); assay type: cell-based; set-up: endogenous in cells; host or cells: IMR32 cells (ATCC), differentiated 8 days with dibutyryl cAMP and bromodeoxyuridine; conditions: calcium mobilization in vitro assay; N-type calcium channel block
Chain of N-type calcium channel (NTCC) (Q00975 whole entry): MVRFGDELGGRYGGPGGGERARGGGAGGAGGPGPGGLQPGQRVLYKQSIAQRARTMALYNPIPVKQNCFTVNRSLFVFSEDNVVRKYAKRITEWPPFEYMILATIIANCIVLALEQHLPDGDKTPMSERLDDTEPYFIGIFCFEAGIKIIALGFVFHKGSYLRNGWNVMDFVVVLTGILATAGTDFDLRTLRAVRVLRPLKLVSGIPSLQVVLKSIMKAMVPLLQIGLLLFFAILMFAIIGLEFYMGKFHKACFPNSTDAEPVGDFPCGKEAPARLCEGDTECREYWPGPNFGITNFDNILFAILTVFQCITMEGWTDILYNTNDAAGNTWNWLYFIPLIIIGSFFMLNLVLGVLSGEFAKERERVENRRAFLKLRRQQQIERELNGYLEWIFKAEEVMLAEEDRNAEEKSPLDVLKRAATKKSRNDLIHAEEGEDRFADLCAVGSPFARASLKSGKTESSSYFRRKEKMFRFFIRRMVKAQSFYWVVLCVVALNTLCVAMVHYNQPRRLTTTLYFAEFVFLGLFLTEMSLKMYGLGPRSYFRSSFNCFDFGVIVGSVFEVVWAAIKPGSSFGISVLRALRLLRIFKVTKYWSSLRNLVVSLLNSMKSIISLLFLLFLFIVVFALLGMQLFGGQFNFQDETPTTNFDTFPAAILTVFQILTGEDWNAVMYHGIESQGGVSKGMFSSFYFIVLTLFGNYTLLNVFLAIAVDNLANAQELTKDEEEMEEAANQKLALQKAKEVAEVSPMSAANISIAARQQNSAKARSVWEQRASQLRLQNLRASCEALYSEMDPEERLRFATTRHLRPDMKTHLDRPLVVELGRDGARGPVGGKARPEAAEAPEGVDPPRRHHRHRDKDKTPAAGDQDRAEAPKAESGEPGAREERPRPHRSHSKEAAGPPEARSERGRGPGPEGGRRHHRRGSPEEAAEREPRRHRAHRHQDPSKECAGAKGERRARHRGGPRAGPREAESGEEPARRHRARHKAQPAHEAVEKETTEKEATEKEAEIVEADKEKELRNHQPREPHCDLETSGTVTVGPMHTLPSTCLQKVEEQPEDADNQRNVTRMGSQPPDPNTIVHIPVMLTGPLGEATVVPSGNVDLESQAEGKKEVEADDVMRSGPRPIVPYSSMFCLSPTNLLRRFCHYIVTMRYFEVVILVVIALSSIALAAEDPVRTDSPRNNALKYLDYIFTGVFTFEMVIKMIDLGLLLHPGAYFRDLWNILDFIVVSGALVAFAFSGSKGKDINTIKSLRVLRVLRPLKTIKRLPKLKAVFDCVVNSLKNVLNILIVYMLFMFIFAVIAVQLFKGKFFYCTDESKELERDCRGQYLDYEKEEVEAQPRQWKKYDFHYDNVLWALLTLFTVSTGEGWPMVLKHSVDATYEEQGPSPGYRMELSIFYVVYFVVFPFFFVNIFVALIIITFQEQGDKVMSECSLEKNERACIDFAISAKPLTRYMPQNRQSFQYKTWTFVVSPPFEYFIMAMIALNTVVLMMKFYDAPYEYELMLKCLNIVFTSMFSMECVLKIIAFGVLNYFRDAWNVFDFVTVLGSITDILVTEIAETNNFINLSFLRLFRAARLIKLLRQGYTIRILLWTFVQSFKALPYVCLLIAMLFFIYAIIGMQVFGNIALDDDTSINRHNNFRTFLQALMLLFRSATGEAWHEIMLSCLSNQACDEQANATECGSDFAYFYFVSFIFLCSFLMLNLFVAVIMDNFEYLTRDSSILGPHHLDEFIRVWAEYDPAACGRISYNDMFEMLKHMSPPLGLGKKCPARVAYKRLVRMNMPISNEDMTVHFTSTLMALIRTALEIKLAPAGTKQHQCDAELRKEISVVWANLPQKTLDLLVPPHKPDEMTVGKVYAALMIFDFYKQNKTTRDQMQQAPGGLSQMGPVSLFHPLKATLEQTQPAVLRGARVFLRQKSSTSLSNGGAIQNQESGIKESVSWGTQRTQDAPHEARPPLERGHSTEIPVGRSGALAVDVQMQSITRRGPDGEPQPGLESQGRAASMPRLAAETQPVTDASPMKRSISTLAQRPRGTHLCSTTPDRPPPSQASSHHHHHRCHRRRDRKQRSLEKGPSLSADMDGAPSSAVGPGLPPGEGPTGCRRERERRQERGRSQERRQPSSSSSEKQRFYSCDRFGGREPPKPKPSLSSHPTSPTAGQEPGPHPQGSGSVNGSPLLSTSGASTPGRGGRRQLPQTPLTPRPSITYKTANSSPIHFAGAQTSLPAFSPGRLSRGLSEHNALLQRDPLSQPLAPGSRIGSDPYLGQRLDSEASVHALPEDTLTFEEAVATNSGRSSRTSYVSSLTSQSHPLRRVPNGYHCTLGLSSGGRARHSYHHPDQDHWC
Chain of N-type calcium channel (NTCC) (P54289 25-956 partner limits assumed): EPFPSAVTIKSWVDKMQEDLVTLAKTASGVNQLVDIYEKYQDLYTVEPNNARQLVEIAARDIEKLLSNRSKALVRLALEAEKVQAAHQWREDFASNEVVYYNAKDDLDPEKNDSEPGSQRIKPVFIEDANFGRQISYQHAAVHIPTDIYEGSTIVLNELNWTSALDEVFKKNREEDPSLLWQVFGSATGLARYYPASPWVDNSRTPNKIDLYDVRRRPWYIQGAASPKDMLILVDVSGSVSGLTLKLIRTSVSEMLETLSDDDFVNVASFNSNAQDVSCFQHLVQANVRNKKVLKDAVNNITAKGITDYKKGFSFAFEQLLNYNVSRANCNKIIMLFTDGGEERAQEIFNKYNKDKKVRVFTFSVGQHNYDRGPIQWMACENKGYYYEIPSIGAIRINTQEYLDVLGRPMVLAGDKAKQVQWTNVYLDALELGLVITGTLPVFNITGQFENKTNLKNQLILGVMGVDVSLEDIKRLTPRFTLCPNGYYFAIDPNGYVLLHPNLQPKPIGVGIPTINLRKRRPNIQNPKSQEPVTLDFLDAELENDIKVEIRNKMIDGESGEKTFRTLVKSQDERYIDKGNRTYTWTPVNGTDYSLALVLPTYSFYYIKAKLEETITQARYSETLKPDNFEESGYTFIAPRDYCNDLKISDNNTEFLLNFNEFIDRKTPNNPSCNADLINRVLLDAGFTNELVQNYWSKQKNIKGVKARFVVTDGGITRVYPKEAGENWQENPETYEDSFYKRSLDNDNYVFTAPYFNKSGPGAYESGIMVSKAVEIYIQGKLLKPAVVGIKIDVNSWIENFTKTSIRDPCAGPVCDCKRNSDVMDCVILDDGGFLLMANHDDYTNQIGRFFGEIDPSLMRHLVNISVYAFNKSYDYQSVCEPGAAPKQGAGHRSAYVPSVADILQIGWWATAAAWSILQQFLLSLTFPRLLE
Chain of N-type calcium channel (NTCC) (P54289 957-1103 partner limits assumed): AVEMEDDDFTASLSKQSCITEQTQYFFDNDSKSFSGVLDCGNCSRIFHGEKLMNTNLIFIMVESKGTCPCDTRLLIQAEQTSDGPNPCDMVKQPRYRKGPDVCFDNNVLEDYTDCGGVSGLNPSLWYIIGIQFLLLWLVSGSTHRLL
Chain of N-type calcium channel (NTCC) (Q02641 whole entry partner): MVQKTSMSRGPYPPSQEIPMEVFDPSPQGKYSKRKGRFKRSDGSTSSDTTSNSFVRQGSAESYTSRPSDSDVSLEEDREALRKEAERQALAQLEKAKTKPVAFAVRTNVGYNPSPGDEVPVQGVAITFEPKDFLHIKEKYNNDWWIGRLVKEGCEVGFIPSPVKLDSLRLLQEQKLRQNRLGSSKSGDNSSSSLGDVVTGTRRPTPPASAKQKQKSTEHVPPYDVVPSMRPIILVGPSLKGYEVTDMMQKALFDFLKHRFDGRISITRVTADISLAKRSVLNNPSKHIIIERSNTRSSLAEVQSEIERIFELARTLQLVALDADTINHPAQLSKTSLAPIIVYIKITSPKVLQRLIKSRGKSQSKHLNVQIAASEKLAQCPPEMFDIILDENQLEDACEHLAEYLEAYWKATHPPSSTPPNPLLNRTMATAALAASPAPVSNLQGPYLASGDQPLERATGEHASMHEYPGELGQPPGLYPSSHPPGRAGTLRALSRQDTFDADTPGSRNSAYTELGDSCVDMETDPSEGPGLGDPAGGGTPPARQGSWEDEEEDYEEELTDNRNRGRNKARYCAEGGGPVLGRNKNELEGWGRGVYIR
Description: Cell maintenance and differentiation. Unless noted otherwise, cell culture reagents were purchased from Mediatech of Herndon, Md. IMR32 cells (American Type Culture Collection, ATCC, Manassas, Va.) were routinely cultured in growth medium consisting of minimum essential medium containing 10% fetal bovine serum (FBS, Hyclone, Logan, Utah), 100 U/mL penicillin, 100 μg/mL streptomycin, 2 mM L-glutamine, 1 mM sodium pyruvate, and 1×MEM non-essential amino acids. 80-90% confluent flasks of cells were differentiated using the following differentiation medium: Growth medium plus 1 mM dibutyryl cyclic AMP (Sigma, St. Louis, Mo.), and 2.5 μM bromodeoxyuridine (Sigma). Cells were differentiated for 8 days by replacing differentiation medium every 2-3 days.
FLIPR Calcium Mobilization Assay for N-type Calcium Channel. One day prior to performing this assay, differentiated IMR32 cells were treated with 1×
CellStripper, and seeded on poly-D-lysine-coated 96-well clear-bottom black plates (Becton Dickinson, Franklin Lakes, N.J.) at 200,000 cells/well. On the day of the assay, the cell plates were washed with IMR32 buffer (127 mM NaCl, 1 mM KCl, 2 mM MgCl2, 700 μM NaH2PO4, 5 mM CaCl2, 5 mM NaHCO3, 8 mM HEPES, 10 mM glucose, pH 7.4), then pre-stimulated with KCl and loaded as follows: 0.05 mL of IMR32 buffer, 0.05 mL of each compound tested diluted in IMR32 buffer containing 20 μM nitrendipine (Sigma), and 0.1 mL KCl dissolved in IMR32 buffer, plus Fluo-4 were added (3 μM final concentration, Molecular Probes, Eugene, Oreg.). Final test compound concentrations ranged from about 846 pM to about 17 μM, final nitrendipine concentration was 5 μM, and final KCl concentration was 90 mM. After 1 hour, the cells were washed twice with 0.05 mL of each compound tested in nitrendipine-containing IMR32 buffer (no KCl or Fluo-4), and then replaced with 0.1 mL of each compound tested in nitrendipine-containing IMR32 buffer. Plates were then transferred to a Fluorimetric Imaging Plate Reader (FLIPR^96, Molecular Devices, Inc., Sunnyvale, Calif.) for assay. The FLIPR measured basal Fluo-4 fluorescence for 315 seconds (i.e., 5 minutes and 15 seconds), then added 0.1 mL KCl agonist dissolved in IMR32 buffer and measured fluorescence for another 45 seconds. Final test compound concentrations on the cells after FLIPR read ranged from about 846 pM to about 17 μM, final nitrendipine concentration was 5 μM, and final KCl concentration was 90 mM. Data were collected over the entire time course and analyzed using Excel, Graph Pad Prism (version 3.02, Graph Pad, San Diego, Calif.), or an in-house non-linear regression analysis software.

[2] = target: T1, L-type calcium channel (LTCC) (Rattus norvegicus, UniProt P22002); test: FLIPR calcium mobilization assay for L-type calcium channel (HEK293 cells expressing recombinant rat LTCC subunits, or alternatively differentiated A7r5 cells); assay type: cell-based; conditions: calcium mobilization in vitro assay; L-type calcium channel block
T1 construct: The 6.5 kb cDNA encoding the L-type calcium channel α1c subunit was cloned by PCR amplification from rat heart cDNA; expressed in transfected cells; host or cells: HEK293 (ATCC), stably transfected
Description: A7r5 (ATCC) cells were maintained and routinely cultured in A7r5 growth medium consisting of Dulbecco's Modified Eagles Medium containing 10% FBS, 100 U/mL penicillin, 100 μg/mL streptomycin, 4 mM L-glutamine, and 0.15% sodium bicarbonate. 80-90% confluent flasks of cells were differentiated using the following differentiation medium: A7r5 Growth Medium plus 1 mM dibutyryl cyclic AMP (Sigma). Cells were differentiated for 8 days by replacing differentiation medium every 2-3 days.
FLIPR Calcium Mobilization Assay for L-type Calcium Channel. One day prior to performing this assay, HEK293 cells stably expressing recombinant rat L-type calcium channel (LTCC) subunits (α1c, α2δ, and β1) are trypsinized, then seeded on poly-D-lysine-coated 96-well clear-bottom black plates (Becton Dickinson, Franklin Lakes, N.J.) at 75,000 cells/well. On the day of the assay, the plates are washed with LTCC wash buffer (127 mM NaCl, 2 mM MgCl2, 700 μM NaH2PO4, 5 mM CaCl2, 5 mM NaHCO3, 8 mM HEPES, 10 mM glucose, pH 7.4), then loaded with 0.1 mL of LTCC wash buffer containing Fluo-4 (3 μM final concentration, Molecular Probes, Eugene, Oreg.). After 1 hour, the cells are washed with 0.1 mL LTCC wash buffer and resuspended in 0.05 mL LTCC assay buffer (same composition as LTCC wash buffer). Plates are then transferred to a FLIPR^96 for assay. The FLIPR measures basal Fluo-4 fluorescence for 15 seconds, then adds 0.05 mL of each compound tested diluted in LTCC assay buffer at final concentrations ranging from about 846 pM to about 17 μM. Fluo-4 fluorescence is then measured for 5 minutes. 0.1 mL KCl agonist dissolved in LTCC assay buffer is then added to the cells to produce a final concentration of 90 mM KCl, and fluorescence is measured for another 45 seconds. Data are collected over the entire time course and analyzed using Excel, Graph Pad Prism, or an in-house regression analysis software.
Alternative FLIPR Calcium Mobilization Assay for L-type Calcium Channel. Alternatively, the following cell line and procedure was used for the FLIPR calcium mobilization assay for L-type calcium channel. One day prior to performing this assay, differentiated A7r5 cells were trypsinized, then seeded on tissue culture treated 96-well clear-bottom black plates (Becton Dickinson, Franklin Lakes, N.J.) at a dilution of 1:1 from a confluent T150 cm^2 flask. On the day of the assay, the plates were washed with A7r5 wash buffer (127 mM NaCl, 2 mM MgCl2, 700 μM NaH2PO4, 5 mM CaCl2, 5 mM NaHCO3, 8 mM HEPES, 10 mM glucose, pH 7.4), then loaded with 0.1 mL of A7r5 wash buffer containing Fluo-4 (3 μM final concentration, Molecular Probes, Eugene, Oreg.). After 1 hour, the cells were washed with 0.1 mL A7r5 wash buffer and resuspended in 0.05 mL A7r5 assay buffer that was composed of A7r5 wash buffer plus 50 μM valinomycin (Sigma). Plates were then transferred to a FLIPR^96 for assay. The FLIPR measured basal Fluo-4 fluorescence for 15 seconds, then added 0.05 mL of each compound tested diluted in A7r5 assay buffer at final concentrations ranging from about 846 pM to about 17 μM. Fluo-4 fluorescence was then measured for 5 minutes. 0.1 mL KCl agonist dissolved in A7r5 assay buffer is then added to the cells to produce a final concentration of 90 mM KCl, and fluorescence was measured for another 45 seconds. Data were collected over the entire time course and analyzed using Excel, Graph Pad Prism, or an in-house regression analysis software.

`O=C1OC2(CCN(C(=O)CC(c3ccccc3)c3ccccc3)CC2)c2ccccc21` [1,3-dihydro-1′-(3,3-diphenylpropanoyl)-spiro[isobenzofuran-1,4′-piperidine]-3-one] gave an IC50 [1] of 2.66 µM.

`COc1ccc(C(=O)N2CCC3(CC2)OC(=O)c2ccccc23)cc1C(F)(F)F` [1,3-dihydro-1′-(4-methoxy-3-trifluoromethylbenzoyl)-spiro[isobenzofuran-1,4′-piperidine]-3-one] was tested, and the IC50 [1] was 6.94 µM and 10 to 20 µM.

Work on `COc1ccc(C(=O)N2CCC3(CC2)OC(=O)c2ccccc23)cn1` [1,3-dihydro-1′-(6-methoxypyridin-3-ylcarbonyl)-spiro[isobenzofuran-1,4′-piperidine]-3-one] yielded an IC50 [1] of 10 to 20 µM.

In the case of `O=C(CCC(=O)N1CCC2(CC1)OC(=O)c1ccccc12)c1ccc(F)cc1` [1,3-dihydro-1′-[4-(4-fluorophenyl)-4-oxobutanoyl]-spiro[isobenzofuran-1,4′-piperidine]-3-one], the IC50 [1] is reported as 10 to 20 µM.

For `CC(C)CC(C(=O)N1CCC2(CC1)OC(=O)c1ccccc12)N(C)C(=O)OC(C)(C)C` (centres unmarked) [1,3-dihydro-1′-[4-methyl-2-(N-methyl-N-tert-butoxycarbonylamino)pentanoyl]-spiro[isobenzofuran-1,4′-piperidine]-3-one], the IC50 [1] was 10.5 µM.

Compound `O=C1OC2(CCN(C(=O)c3ccc(OCC(F)(F)F)nc3)CC2)c2ccccc21` [1,3-dihydro-1′-[6-(2,2,2-trifluoroethoxy)pyridin-3-ylcarbonyl]-spiro[isobenzofuran-1,4′-piperidine]-3-one] has an IC50 [1] of 6.47 µM.

Work on `O=C1OC2(CCN(CCC(=O)N(c3ccc(F)cc3)c3ccc(F)cc3)CC2)c2ccccc21` [1,3-dihydro-1′-{2-[N,N-bis(4-fluorophenyl)aminocarbonyl]ethyl}-spiro[isobenzofuran-1,4′-piperidine]-3-one] yielded an IC50 [1] of 1.64 µM.

`COc1ccc(CN(C)C(CC(C)C)C(=O)N2CCC3(CC2)OC(=O)c2ccccc23)cc1` (centres unmarked) [1,3-dihydro-1′-{4-methyl-2-[N-methyl-N-(4-methoxybenzyl)amino]-pentanoyl}-spiro[isobenzofuran-1,4′-piperidine]-3-one] showed an IC50 [1] of 4.13 µM.

`O=C(CC(c1ccccc1)c1ccccc1)N1CCC2(C=Cc3ncccc32)CC1` [1-(3,3-diphenylpropanoyl)-spiro[piperidine-4,5′-cyclopenta[b]pyridine]] showed an IC50 [1] of 3.52 µM.

`COc1ccc(C(=O)N2CCC3(C=Cc4ccccc43)CC2)cc1C(F)(F)F` [1-(3-trifluoromethyl-4-methoxybenzoyl)-spiro[piperidine-4,1′-indene]] showed an IC50 [2] of 5.74 µM and an IC50 [1] of 2.29 µM.

Compound `COc1ccc(CN2CCC3(C=Cc4ncccc43)CC2)cc1C(F)(F)F` [1-(4-methoxy-3-trifluoromethylbenzyl)-spiro[piperidine-4,5′-cyclopenta[b]pyridine]] has an IC50 [1] of 10 to 20 µM.

With `O=C(N1CCc2cc(S(=O)(=O)N3CCC4(C=Cc5ncccc54)CC3)ccc2C1)C(F)(F)F` [1-(N-trifluoromethylcarbonyl-1,2,3,4-tetrahydroisoquinolin-6-yl-sulfonyl)-spiro[piperidine-4,5′-cyclopenta[b]pyridine]] the IC50 [1] was 5.61 µM.

With `O=C(c1cc2ccccc2s1)N1CCC2(C=Cc3ncccc32)CC1` [1-(benzo[b]thiophen-2-ylcarbonyl)-spiro[piperidine-4,5′-cyclopenta[b]pyridine]] the IC50 [1] was 10 to 20 µM.

`C1=CC2(CCN(CCC=C3c4ccccc4CCc4ccccc43)CC2)c2cccnc21` [1-[2-(10,11-dihydro-5H-dibenzo[a,d]cyclohepten-5-ylmethenyl)ethyl]-spiro[piperidine-4,5′-cyclopenta[b]pyridine]] was tested, and the IC50 [2] was 3.78 µM and the IC50 [1] was 0.55 µM.

Work on `O=C1NC2(CCN(CCCC(c3ccc(F)cc3)c3ccc(F)cc3)CC2)c2ccccc21` [2,3-Dihydro-1′-[4,4-bis(4-fluorophenyl)butyl]-spiro[isoindole-1,4′-piperidine]-3-one] yielded an IC50 [2] greater than 20 µM and an IC50 [1] of 0.34 µM.

Work on `O=C1OC2(CCN(CCCC(c3ccc(F)cc3)c3ccc(F)cc3)CC2)c2ccccc21` [Compound 12, 1,3-Dihydro-1′-[4,4-bis(4-fluorophenyl)butyl]-spiro[isobenzofuran-1,4′-piperidine]-3-one] yielded an IC50 [2] of 3.95 µM and an IC50 [1] of 0.46 µM.

`O=C1OC2(CCN(C(=O)CCC(c3ccc(F)cc3)c3ccc(F)cc3)CC2)c2ccccc21` [Compound 14, 1,3-Dihydro-1′-[4,4-bis(4-fluorophenyl)butanoyl]-spiro[isobenzofuran-1,4′-piperidine]-3-one] showed an IC50 [2] of 0.31 µM and an IC50 [1] of 0.69 µM.

`O=C(CC=C(c1ccc(F)cc1)c1ccc(F)cc1)N1CCC2(C=Cc3ccccc32)CC1` [Compound 33, 1-[4,4-bis(4-fluorophenyl)but-3-enoyl]-spiro[piperidine-4,1′-indene]] gave an IC50 [1] of 5.59 µM.

In the case of `O=C(CCC(c1ccc(F)cc1)c1ccc(F)cc1)N1CCC2(C=Cc3ccccc32)CC1` [Compound 34, 1-[4,4-bis(4-fluorophenyl)butanoyl]-spiro[piperidine-4,1′-indene]], the IC50 [1] is reported as 10 to 20 µM.

In the case of `O=C1OC2(CCN(CC(=O)N(c3ccc(F)cc3)c3ccc(F)cc3)CC2)c2ccccc21` [Compound 71, 1,3-Dihydro-1′-[N,N,-bis(4-fluorophenyl)aminocarbonylmethyl]-spiro[isobenzofuran-1,4′-piperidine]-3-one], the IC50 [1] is reported as 4.89 µM.

Compound `O=C1OC2(CCN(C(=O)CC(=O)N(c3ccc(F)cc3)c3ccc(F)cc3)CC2)c2ccccc21` [Compound 75, 1,3-Dihydro-1′-{2-[N,N,-bis(4-fluorophenyl)aminocarbonyl]ethan-1-oyl}-spiro[isobenzofuran-1,4′-piperidine]-3-one] has an IC50 [1] of 5.79 µM.
